Counter-ions that a name gives are not always drawn.

Data set [1] is described as follows: bioavailability of IP3 in pigs: blood concentration of IP3 and AUC after intravenous, intraduodenal or oral administration. It counts as in vivo. The protocol: The blood samples were assayed for the content of IP3 and these measurements were used for the calculation of the reference data as 100% of the substance is introduced into the blood stream after an intravenous injection.
Another five pigs were given the N(3-dodecanoyloxy)propyltrimethyl ammonium salt of IP3 as an intraduodenal dosing. The animals were treated with Atropin® and anaesthetized with Hypnodil®/Sedaperone® whereafter a laparotomy was carried out. Blood samples were collected at the time intervals mentioned above and the concentration of IP3 was determined in each sample. By calculating the area under the curve (AUC) from a graph where the concentration versus time is shown and comparing the obtained value with a similar calculation from the data after intravenous injection of the substance the bioavailability for the specific formulation is obtained.
Blood samples were collected at the same time intervals as above and the concentration of IP3 was determined. Following a similar procedure the AUC was determined.
(§1) Blood samples were collected and the concentration of IP3 were determined.
as §1

In data set [2] the test system is intestinal barriers.

On to `O=P(O)(O)O[C@@H]1[C@H](OP(=O)(O)O)[C@H](O)[C@@H](O)[C@H](O)[C@H]1OP(=O)(O)O` [sodium salt, pentasodium salt of D-myo-inositol-1.2.6-triphosphate], for which, in data set [1] (pig, in vivo), the “Normalized AUC” value is 3%. Besides, in data set [1] (pig, in vivo, iv), the “Normalized AUC” value came to 100%, the concentration at 0.25 h was 71000 nM, the concentration at 0.5 h is 47500 nM and the concentration at 1 h was found to be 24900 nM. In data set [1] (pig, in vivo, iv), this compound displayed a concentration at 2 h of 9300 nM, a concentration at 4 h of 3200 nM, a concentration at 8 h of 400 nM and a concentration at 24 h of 200 nM. For the same compound, the “conc. IP3” value in data set [1] (pig, in vivo, iv, 0 min) was 0 nM. In data set [1] (pig, in vivo, iv, 2 h), this compound returned a concentration of 9300 nM. Moreover, in data set [1] (pig, in vivo, po), the concentration at 0.25 h is 200 nM, the concentration at 0.5 h stood at 500 nM, the concentration at 1 h stood at 500 nM and the concentration at 2 h was 200 nM. Moreover, in data set [1] (pig, in vivo, po), the concentration at 4 h is 100 nM and the concentration at 6 h was determined as 100 nM. The “conc. IP3” value in data set [1] (pig, in vivo, po, 0 min) was 0 nM. In data set [1] (pig, in vivo, po, 1 h), this compound had a concentration of 500 nM. The “conc. IP3” value in data set [1] (pig, in vivo, po, 480 min) came out at 0 nM. In addition, in data set [1] (pig, in vivo, po, 1440 min), the “conc. IP3” value is 0 nM.
As for “N-(hexyloxycarbonyl)methyl trimethyl ammonium inositol trisphosphate”, in data set [1] (pig, in vivo), the “Normalized AUC” value was found to be 75%. In addition, the “bioavailability of the oral formulation” value in data set [1] (pig, in vivo) is 75%. In addition, the “conc. IP3” value in data set [1] (pig, in vivo, 0 min) was 0 nM. Further, the concentration was determined as 18200 nM in data set [1] (pig, in vivo, 0.25 h); 29600 nM in data set [1] (pig, in vivo, 0.5 h); 20100 nM in data set [1] (pig, in vivo, 1 h); 12200 nM in data set [1] (pig, in vivo, 2 h); 4300 nM in data set [1] (pig, in vivo, 4 h); 1500 nM in data set [1] (pig, in vivo, 6 h). In addition, the concentration in data set [1] (pig, in vivo, 24 h) worked out at 100 nM. For the same compound, the “toxic effects on the intestinal barriers” value in data set [2] is “no toxic effects on the intestinal barriers”.
With “N(3-dodecanoyloxy)propyltrimethylammonium inositol trisphosphate”, in data set [1] (pig blood, oral formulation given as intraduodenal dosing, 0 hrs), the “conc. IP3” value was 0 nM. Also, the “Normalized AUC” value in data set [1] (pig, in vivo) was 46%. The “bioavailability of the oral formulation” value in data set [1] (pig, in vivo) is 46%. Besides, the concentration in data set [1] (pig, in vivo, 0.25 h) came to 6300 nM; in data set [1] (pig, in vivo, 0.5 h), 9400 nM; in data set [1] (pig, in vivo, 1 h) it was 10800 nM; in data set [1] (pig, in vivo, 2 h), 7600 nM; in data set [1] (pig, in vivo, 4 h), 2200 nM; in data set [1] (pig, in vivo, 6 h), 1000 nM. Also, the concentration in data set [1] (pig, in vivo, 8 h) was determined as 800 nM; in data set [1] (pig, in vivo, 24 h) it was 100 nM.

These data come from patent US5614510A, “Pharmaceutical composition with improved bioavailability of inositol phosphate” (priority 1992, dated 1997).
